Measurements reported in patent publication US20170027973A1, “MODULARION OF INVARIANT NATURAL KILLER T CELLS IN THE TREATMENT OF SEPSIS” (LONDON HEALTH SCIENCES CENTRE RESEARCH INC., priority 2014, published 2017).

Legend:
[1] = test system: splenocyte apoptosis; assay: Histology (H&E) and TUNEL staining of spleen, liver and omentum of septic B6 mice; assay type: in vivo, mouse; conditions: 24 hours
Text: FIG. 6: Histopathology of septic B6 mice treated with glycolipid agonists of iNKT cells. […] Lymphocyte migration to the omentum is also ameliorated in OCH-treated mice compared to vehicle- and KRN7000-treated mice. There were no histopathological differences in the liver. Images are representative of 4 animals per treatment group (size bar, 50 μm). (b) Histopathological scoring of the degree of apoptosis observed within the spleens of sham and septic B6 mice treated with vehicle, KRN7000, or OCH (n=4 animals per treatment group). Apoptosis was defined histologically by the presence of cell clusters with nuclear shrinkage (karyorrhexis), dark eosinophilic cytoplasm, intact plasma membrane, and relative paucity of surrounding inflammatory cells within the splenic follicles on H&E staining. Scores assigned to each animal by a blinded independent pathologist were as follows: 0 for complete absence of apoptosis; 1 for mild presence of apoptosis (0-15% per follicle); 2 for moderate apoptosis (16-30% per follicle); and 3 for severe apoptosis (31-45% per follicle). ***p<0.0001 by two-tailed Mann Whitney U test.
Liver, spleen, and omentum from sham B6 mice, and vehicle-, OCH-, and KRN7000-treated septic B6 mice were fixed in 10% neutral buffered formalin, embedded in paraffin, sectioned, and stained with H&E or subjected to TUNEL staining using a commercially available kit (Calbiochem). At least four stained sections per spleen from four animals per treatment group were examined and scored for apoptosis by a board-certified veterinary pathologist (Welch) who was blinded to the study design. Apoptosis was defined histologically by the presence of cell clusters with nuclear shrinkage (karyorrhexis), dark eosinophilic cytoplasm, intact plasma membrane, and relative paucity of surrounding inflammatory cells within the splenic follicles on H&E staining (34). Scores assigned to each animal were as follows: 0 for complete absence of apoptosis; 1 for mild presence of apoptosis (0-15% per follicle); 2 for moderate apoptosis (16-30% per follicle); and 3 for severe apoptosis (31-45% per follicle). Photomicrographs were taken using a Nikon DS-Fi1 digital camera using NIS-elements software.

[2] = test system: invariant TCR; conditions: C20:2 compared to OCH; cited from earlier work
[3] = test system: B6 mice with intra-abdominal sepsis (IAS); assay: Murine intra-abdominal sepsis (IAS) model: survival and murine sepsis score (MSS); assay type: in vivo, mouse; conditions: septic B6 mice
Experimental: Stool from the cecum of euthanized naïve B6 mice was expressed through an enterotomy, homogenized, and suspended in 0.9% normal saline (NS) to produce a fecal slurry at a final concentration of 90 mg/mL, for use in experiments on the same day. Mice were injected intraperitoneally with 500 μL fecal slurry or 0.9% normal saline (sham group). The mice were monitored and scored by two independent investigators—one of whom was blinded to the treatment—every 2-3 hours for the first 12 hours, and then every 1-2 hours thereafter. A murine sepsis score (MSS) was assigned to each mouse based on activity, eye movement, response to exogenous stimuli, breathing rate and pattern, and degree of piloerection (Shrum et al. BMC Research Notes 2014, 7:233). The MSS is a reliable and robust scoring system that has excellent inter-rater reliability (intra-class coefficient=0.96), high internal consistency (Cronbach α=0.92), and correlates with levels of certain pro-inflammatory cytokines such as IFN-γ and IL-1β during the experimental timeline (Shrum et al. BMC Research Notes 2014, 7:233). Mice were euthanized at 24 hours, or earlier if they were deemed to be in significant distress based on our scoring model. Euthanasia was carried out as described above. At the time of sacrifice, intra-cardiac blood was drawn into 1.5 mL micro-centrifuge tubes (BD Biosciences) and centrifuged for serum at 1000×g for 30 minutes at 4° C.
(§1) Lyophilized OCH was generously provided by the National Institutes of Health (NIH) Tetramer Core Facility (Emory University, Atlanta, Ga.). Each vial containing 0.2 mg of OCH was solubilized in a vehicle solution containing 1 mL of sterile distilled water, 0.5% Tween 20, 56 mg of sucrose and 7.5 mg of histidine, and stored as aliquots at 4° C. until use. KRN7000 (α-GalCer, C26:0/C18:0) was purchased from Funakoshi Co. Ltd. (Tokyo, Japan), solubilized at 1 mg/ml in dimethylsulphoxide (DMSO), and stored as aliquots at −20° C. until use (29); the control vehicle was 2% DMSO in phosphate-buffered saline (PBS). C20:2 was synthesized and used as previously published (30, 31). For in vivo experiments, mice were injected intraperitoneally (i.p.) with a single dose of glycolipid (4 μg/dose) (30) within twenty minutes after induction of IAS.

[4] = test system: serum IL-4 and IFN-γ; assay: Serum IL-4 and IFN-γ by ELISA after i.p. glycolipid injection into naïve B6 mice; assay type: in vivo, mouse; conditions: compared to OCH
Experimental: FIG. 10: Effect of glycolipid agonists on cytokine expression in naïve B6 mice, and on iNKT cells in septic B6 mice. (a) Naïve B6 mice were injected i.p. with 4 μg OCH or KRN7000 or C20:2, and bled at 2, 12, and 24 hours post-injection. Serum samples were assayed for IL-4 and IFN-γ by enzyme-linked immunosorbent assay (ELISA). […] Vehicle-treated mice had cytokine levels below limits of detection. (b) B6 mice were given an intraperitoneal injection of fecal slurry (500 μL of a 90 mg/mL solution) to induce IAS and concomitantly treated with 4 μg of vehicle, OCH, or KRN7000. After 24 hours, mice were sacrificed, and cell suspensions from the liver and spleen were stained for the flow cytometric detection of CD1d tetramer+ TCRβ+iNKT cells.
as §1
Cytokine concentrations were determined by commercially available specific ELISA assays for IL-4 and IFN-γ (Ready-Set-Go kits, eBioscience). ODs were measured on a Benchmark Microplate Reader (Bio-Rad) at a wavelength of 450 nm for both cytokines.

[5] = C20:2 compared to OCH; cited from earlier work

CCCCC/C=C\C/C=C\CCCCCCCCCC(=O)N[C@@H](CO[C@H]1O[C@H](CO)[C@H](O)[C@H](O)[C@H]1O)[C@H](O)[C@H](O)CCCCCCCCCCCCCC [C20:2]
apoptosis in histology compared to KRN7000-treated mice [1]: decrease
degree of apoptosis compared to OCH-treated mice [1]: higher
capacity to bind and activate iNKT cells [2]: significantly stronger
respiratory status ([3]; observed up to 24 hours): improved respiratory status
course of MSS over time ([3]; up to 24 hours): continued to rise
MSS between 20 and 24 hours ([3]; compared to vehicle-treated mice): significant reduction
Th2 response at 24 hours [4]: more pronounced
half-life [5]: relatively short
